Usually melting point stands for the temperature of the solid-liquid transition.

Results on 8 molecules are retold here after patent publication US8377422B2, “Carboxamide derivatives having cooling properties” (Givaudan S.A., priority 2007, dated 2013).

The subject of data set [1] is panelist. Put plainly: Application in toothpaste: cooling sensation after brushing. Format: in vivo, human. The note with it: toothgel base with 0.10 g of 10% by weight ethanol solution and 0.30 g saccharin; teeth brushed, mouth rinsed with water. The method, then:
0.10 g of (1R,2S,5R)—N-(2-hydroxy-3-phenoxypropyl)-2-isopropyl-5-methylcyclohexane-carboxamide (at 10% by weight solved in ethanol) and 0.30 g saccharin were mixed in a toothgel base.
A piece of the thus prepared toothpaste was put on a toothbrush and a panelist's teeth were brushed. The mouth was rinsed with water and the water spat out. […] The cooling sensation was perceived for over 50 minutes.

Data set [2] concerns panelists. Briefly: Cooling intensity: panel tasting of aqueous solutions against menthol at 2 ppm. The format is in vivo, human. As to conditions: for Concentration: aqueous solution with cooling intensity similar to or slightly higher than menthol at 2 ppm, tasted by small group of panelists.

In the case of `CC(C)[C@@H]1CC[C@@H](C)C[C@H]1C(=O)NCC(O)COc1ccccc1` (stereo partly drawn) [Example 2.2, (1R,2S,5R)—N-(2-hydroxy-3-phenoxypropyl)-2-isopropyl-5-methylcyclohexane-carboxamide], in data set [1], the “cooling sensation felt by the panelist” value is “long lasting cooling sensation” and the “duration of perceived cooling sensation” value is listed as “over 50 minutes”.
In data set [2], `CC(C)OCCCNC(=O)[C@@H]1C[C@H](C)CC[C@H]1C(C)C` [(1R,2S,5R)-N-(3-isopropoxypropyl)-2-isopropyl-5-methylcyclohexanecarboxamide] showed a Concentration of 0.1 ppm.
For `CC(C)[C@@H]1CC[C@@H](C)C[C@H]1C(=O)NCCOc1ccccc1` [Ex. 2.7, (1R,2S,5R)-2-isopropyl-5-methyl-N-(2-phenoxyethyl)cyclohexanecarboxamide], in data set [2], the Concentration is listed as 0.01 ppm. For the same molecule, the “cooling intensity relative to prior art compound (1R,2S,5R)-2-isopropyl-N-(2-methoxyethyl)-5-methylcyclohexane-carboxamide” value in data set [2] (compared with the prior art compound) is reported as “about 100 times higher”.
Regarding `CC1CCC(C(C)C)C(O)C1` (stereo not shown) [I-Menthol], the Concentration in data set [2] is 2.0 ppm.
As for `Cc1ccccc1OCCCNC(=O)[C@@H]1C[C@H](C)CC[C@H]1C(C)C` [Example 1, (1R,2S,5R)-2-isopropyl-5-methyl-N-(3-(o-tolyloxy)propyl)cyclohexane-carboxamide], the melting point lay within 89.4 to 91.1 °C.
In data set [2], `COCCNC(=O)[C@@H]1C[C@H](C)CC[C@H]1C(C)C` [(1R,2S,5R)-2-isopropyl-N-(2-methoxyethyl)-5-methylcyclohexanecarboxamide] registered a Concentration of 1.0 ppm.
On the same count and under the same terms, the same measure for `CC(C)[C@@H]1CC[C@@H](C)C[C@H]1C(=O)NCCCOc1ccccn1` [Ex. 2.5, (1R,2S,5R)-2-isopropyl-5-methyl-N-(3-(pyridin-2-yloxy)propyl)cyclohexane-carboxamide]: 0.02 ppm.
Still for that read-out and setting: the same measure for `CCNC(=O)C1CC(C)CCC1C(C)C` (stereo not shown) [WS-3, N-ethyl p-menthanecarboxamide]: 1.5 ppm.
